In patent EP1787658B1, “Sustained release formulations of somatostatin analogue inhibitors of growth hormone” (CHEMI S.p.A., priority 2005, dated 2012):

Experiment: Plasma levels of somatostatin analogue after a single s.c. or i.m. administration, by LC/MS-MS
Assay type: in vivo, rats
Settings: after both s.c. and i.m injection
Protocol: Two groups of animals were treated with a single administration each s.c. and i.m, of 100µl of the formulation (3.37 mg of oligopeptide equal to 15mg/Kg). Blood samples from 5 animals per time point were collected at different time points up to 49 days after treatment. The plasma levels of somatostine analogue were determined by a LC/MS-MS method.
Mean plasma, levels and standard deviations for each time point are shown in the table below (Table 2) and in Figures 1 and 2.

C[C@@H](O)[C@@H]1NC(=O)[C@H](CCCCN)NC(=O)[C@@H](Cc2c[nH]c3ccccc23)NC(=O)[C@H](Cc2ccccc2)NC(=O)[C@@H](NC(=O)[C@H](N)Cc2ccccc2)CSSC[C@@H](C(=O)N[C@H](CO)[C@@H](C)O)NC1=O [Octreotide acetate]
presence of detectable levels of the oligopeptide: up to 49 days
